Measurements: article PMC10233829 (ACS Omega, 2023)
Converted amounts (≈) assume the structure as drawn.

What was measured:
S. aureus ATCC 6538 = test: MIC, twofold microdilution, standard strain; format: cell-based, Staphylococcus aureus
S. epidermidis 4341 = test: MIC, twofold microdilution, clinical strain; format: cell-based; conditions: Staphylococcus epidermidis, 18 h
S. aureus 180 = test: MIC, twofold microdilution, clinical strain; format: cell-based; conditions: Staphylococcus aureus, 18 h
S. aureus ATCC 25923 = test: MIC, twofold microdilution, standard strain; format: cell-based; conditions: Staphylococcus aureus, ATCC25923, 18 h
E. coli 951 = test: MIC, twofold microdilution, clinical strain; format: cell-based; conditions: Escherichia coli, 18 h
[1] = tested on: S. epidermidis ATCC 12228; test: MIC, twofold microdilution, standard strain; format: cell-based; conditions: Staphylococcus epidermidis, ATCC12228, 18 h
E. cloacae 8 = test: MIC, twofold microdilution, clinical strain; format: cell-based, Escherichia cloacae; conditions: Enterobacter cloacae, 8; clinical strain, 18 h
M. tuberculosis H37Rv = test: Tuberculostatic activity, Microplate Alamar Blue Assay (MIC); format: cell-based, Mycobacterium tuberculosis; conditions: Mycobacterium tuberculosis, H37RV; MABA; read-out: MIC M. tuberculosis H37Rv
S. epidermidis KR4243/1 = test: MIC, twofold microdilution, clinical strain; format: cell-based; conditions: Staphylococcus epidermidis, 18 h
K. pneumoniae 510 = test: MIC, twofold microdilution, clinical strain; format: cell-based, Klebsiella pneumoniae
[2] = tested on: S. epidermidis ATCC 35984; test: MIC, twofold microdilution, standard strain; format: cell-based; conditions: Staphylococcus epidermidis, ATCC35984, 18 h
PC3 cells = test: MTT assay, cytotoxic activity; format: cell-based, human; conditions: Homo sapiens, PC-3, 72 h, MTT, 72 h
How it was run: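 PC3 cells were grown at 37 °C/5% CO2 and exposed to test compounds. Viability came from MTT reduction, as test absorbance over untreated-control absorbance × 100%.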

S. aureus T5591 = test: MIC, twofold microdilution, clinical strain; format: cell-based, Staphylococcus aureus; conditions: Staphylococcus aureus, T5591, 18 h
S. epidermidis 5253 = test: MIC, twofold microdilution, clinical strain; format: cell-based, Staphylococcus epidermidis; conditions: Staphylococcus epidermidis, 5253, 18 h
[3] = MTT assay, cytotoxic activity; format: cell-based; conditions: human, HaCaT cells (immortal keratinocytes); MTT, 72 h, normal cell line; read-out: IC50 HaCaT
How it was run: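 MTT assay on cells grown at 37 °C/5% CO2. Viability is expressed as relative MTT reduction: test absorbance divided by untreated-control absorbance, ×100%.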

S. aureus T5595 = test: MIC, twofold microdilution, clinical strain; format: cell-based, Staphylococcus aureus; conditions: Staphylococcus aureus, T5595, 18 h
S. pasteuri KR 4358 = test: MIC, twofold microdilution, clinical strain; format: cell-based; conditions: Staphylococcus pasteuri, KR4358, 18 h
P. aeruginosa 659 = test: MIC, twofold microdilution, clinical strain; format: cell-based; conditions: Pseudomonas aeruginosa, 18 h
E. coli 520 = test: MIC, twofold microdilution, clinical strain; format: cell-based; conditions: Escherichia coli, 18 h
[4] = tested on: M. tuberculosis Spec. 192; test: Tuberculostatic activity, Microplate Alamar Blue Assay (MIC); format: cell-based; conditions: Mycobacterium tuberculosis, MABA, read-out: MIC M. tuberculosis Spec. 192 (sensitive to tuberculostatics)
P. aeruginosa ATCC 15442 = test: MIC, twofold microdilution, standard strain; format: cell-based, Pseudomonas aeruginosa
K. pneumoniae 28 = test: MIC, twofold microdilution, clinical strain; format: cell-based; conditions: Klebsiella pneumoniae, 18 h
E. coli ATCC 25922 [5] = test: Bacterial growth curve assay (OD600, 18 h); format: cell-based, Escherichia coli; conditions: E. coli, 0.006 μg/mL
S. aureus 5595 = test: MIC, twofold microdilution, clinical strain; format: cell-based; conditions: Staphylococcus aureus, 18 h
P. aeruginosa 37 = test: MIC, twofold microdilution, clinical strain; format: cell-based; conditions: Pseudomonas aeruginosa, 18 h
[6] = tested on: clinical bacterial strains; test: MIC, clinical isolates as groups of strains; format: cell-based; conditions: S. aureus 180 and 5595
E. coli ATCC 25922 [7] = test: MIC, twofold microdilution, standard strain; format: cell-based, Escherichia coli
S. aureus ATCC 29213 = test: MIC, twofold microdilution, standard strain; format: cell-based; conditions: Staphylococcus aureus, ATCC29213, 18 h
S. aureus NCTC 4163 = test: MIC, twofold microdilution, standard strain; format: cell-based; conditions: Staphylococcus aureus, NCTC4163, 18 h
E. coli 600 = test: MIC, twofold microdilution, clinical strain; format: cell-based, Escherichia coli; conditions: Escherichia coli, 600, 18 h

## O=C(O)c1cn(C2CC2)c2cc(N3CCN(C(=O)CCCBr)CC3)c(F)cc2c1=O [Compound 10, 7-[4-(4-Bromobutyryl)-piperazin-1-yl]-1-cyclopropyl-6-fluoro-4-oxo-1,4-dihydro-quinoline-3-carboxylic Acid]
S. aureus ATCC 6538; Staphylococcus aureus, ATCC6538, standard strain, 18 h
  MIC: 0.2 µg/mL (≈ 0.416 µM)
S. aureus ATCC 6538; Table S1, MIC
  MIC used in biofilm eradication assay, S. aureus 6538: 0.200 µg/mL (≈ 0.416 µM)
S. epidermidis 4341
  MIC: 25.6 µg/mL (≈ 53.3 µM)
S. aureus 180
  MIC: 0.8 µg/mL (≈ 1.67 µM)
S. aureus ATCC 25923
  MIC: 0.4 µg/mL (≈ 0.833 µM)
E. coli 951
  MIC: 0.4 µg/mL (≈ 0.833 µM)
[1]
  MIC: 0.2 µg/mL (≈ 0.416 µM)
E. cloacae 8
  MIC: 0.05 µg/mL (≈ 0.104 µM)
M. tuberculosis H37Rv
  MIC: 1 µg/mL (≈ 2.08 µM)
S. epidermidis KR4243/1
  MIC: 0.4 µg/mL (≈ 0.833 µM)
K. pneumoniae 510; Klebsiella pneumoniae rods
  share of the reference (CP) activity: 62.5%
K. pneumoniae 510; Klebsiella pneumoniae, 510, clinical strain, 18 h
  MIC: 6.4 µg/mL (≈ 13.3 µM)
[2]
  MIC: 0.1 µg/mL (≈ 0.208 µM)
PC3 cells
  IC50: 84.1 ± 7.3 µM
S. aureus T5591
  MIC: 0.8 µg/mL (≈ 1.67 µM)
S. epidermidis 5253
  MIC: > 25.6 µg/mL
[3]
  IC50 at 72 h: 89.1 ± 2.1 µM
S. aureus T5595
  MIC: 0.8 µg/mL (≈ 1.67 µM)
S. pasteuri KR 4358
  MIC: 0.2 µg/mL (≈ 0.416 µM)
P. aeruginosa 659
  MIC: 0.8 µg/mL (≈ 1.67 µM)
E. coli 520
  MIC: 0.1 µg/mL (≈ 0.208 µM)
[4]
  MIC: 0.5 µg/mL (≈ 1.04 µM)
P. aeruginosa ATCC 15442; Pseudomonas aeruginosa, ATCC15442, standard strain, 18 h
  MIC: 0.1 µg/mL (≈ 0.208 µM)
P. aeruginosa ATCC 15442; Table S1, MIC
  MIC used in biofilm eradication assay, P. aeruginosa 15442: 0.100 µg/mL (≈ 0.208 µM)
K. pneumoniae 28
  MIC: > 25.6 µg/mL
E. coli ATCC 25922 [5]
  lag phase elongated to: 9 h
S. aureus 5595
  MIC: 0.8 µg/mL (≈ 1.67 µM)
P. aeruginosa 37
  MIC: 0.8 µg/mL (≈ 1.67 µM)
[6]
  share of CP inhibitory activity: 62.5%
E. coli ATCC 25922 [7]; Escherichia coli, ATCC25922, standard strain, 18 h
  MIC: 0.025 µg/mL (≈ 0.052 µM)
E. coli ATCC 25922 [7]; Table S1, MIC
  MIC used in biofilm eradication assay, E. coli ATCC 25922: 0.025 µg/mL (≈ 0.052 µM)
S. aureus ATCC 29213
  MIC: 0.4 µg/mL (≈ 0.833 µM)
S. aureus NCTC 4163
  MIC: 0.2 µg/mL (≈ 0.416 µM)
E. coli 600
  MIC: 0.05 µg/mL (≈ 0.104 µM)
